We go through 28 molecules from patent US8735414B2 (priority 2009, dated 2014).

Data set [1] deals with bicistronic HCV replicon (replicon RNA, GenBank Accession No. AJ242654). Kind of data set: HCV Replicon Assay. The class given is cell-based. The note with it: Hepatitis C virus, 72 h, read-out: Replicon IC50.

In general, melting point refers to the temperature, or range, at which the solid turns liquid. Usually IC50 stands for the concentration that gives 50% inhibition. Consider `COc1cc2c(cc1F)c(C#N)c(-c1ncc(S(=O)(=O)NC(CF)CF)cn1)n2C1CCC1` [compound 150, 2-(3-cyano-1-cyclobutyl-5-fluoro-6-methoxy-1H-indol-2-yl)-N-(1,3-difluoropropan-2-yl)pyrimidine-5-sulfonamide], for which the melting point was 245 to 247 °C. Moreover, the half-maximal inhibitory concentration (IC50) in data set [1] was < 500 nM.
The molecule `N#Cc1c(-c2ncc(S(=O)(=O)NC(CF)CF)cn2)n(C2CCCC2)c2cc(Cl)ccc12` [compound 157, 2-(6-chloro-3-cyano-1-cyclopentyl-1H-indol-2-yl)-N-(1,3-difluoropropan-2-yl)pyrimidine-5-sulfonamide] returned a melting point of 233 to 238 °C. Moreover, the IC50 in data set [1] is < 500 nM.
Consider `Cc1ccc2c(c1)c(C#N)c(-c1ccc(S(=O)(=O)NC(CF)CF)cn1)n2C1CCCC1` [compound 158, 6-(3-cyano-1-cyclopentyl-5-methyl-1H-indol-2-yl)-N-(1,3-difluoropropan-2-yl)pyridine-3-sulfonamide], for which the melting point was in the range of 168 to 173 °C. For the same molecule, in data set [1], the concentration for half-maximal inhibition (IC50) was < 500 nM.
The like results for `Cc1ccc2c(c1)c(C#N)c(-c1ncc(S(=O)(=O)NC(C)C)cn1)n2C1CCCC1` [compound 159, 2-(3-cyano-1-cyclopentyl-5-methyl-1H-indol-2-yl)-N-(propan-2-yl)pyrimidine-5-sulfonamide] were, in that order, 193 to 198 °C and < 500 nM.
The like results for `Cc1ccc2c(c1)c(C#N)c(-c1ncc(S(=O)(=O)NC(CF)CF)cn1)n2C1CCCC1` [compound 160, 2-(3-cyano-1-cyclopentyl-5-methyl-1H-indol-2-yl)-N-(1,3-difluoropropan-2-yl)pyrimidine-5-sulfonamide] were, in that order, 202 to 207 °C and < 500 nM.
As for `CSc1ccc2c(C#N)c(-c3ncc(S(=O)(=O)NC(CF)CF)cn3)n(C3CCC3)c2c1` [compound 162, 2-[3-cyano-1-cyclobutyl-6-(methylsulfanyl)-1H-indol-2-yl]-N-(1,3-difluoropropan-2-yl)pyrimidine-5-sulfonamide], the melting point lay in the range of 199 to 201 °C. Also, the IC50 in data set [1] is < 500 nM.
The like results for `N#Cc1c(-c2ncc(S(=O)(=O)NC(CF)CF)cn2)n(C2CCC2)c2cc(F)ccc12` [compound 163, 2-(3-cyano-1-cyclobutyl-6-fluoro-1H-indol-2-yl)-N-(1,3-difluoropropan-2-yl)pyrimidine-5-sulfonamide] were, in that order, 193 to 195 °C and 500 to 2000 nM.
The like results for `N#Cc1c(-c2ncc(S(=O)(=O)NC(CF)CF)cn2)n(CC2CC2)c2cc(F)ccc12` [compound 164, 2-[3-cyano-1-(cyclopropylmethyl)-6-fluoro-1H-indol-2-yl]-N-(1,3-difluoropropan-2-yl)pyrimidine-5-sulfonamide] were, in that order, 176 to 178 °C and 500 to 2000 nM.
The like results for `CC(C)n1c(-c2ncc(S(=O)(=O)NC(CF)CF)cn2)c(C#N)c2ccc(F)cc21` [compound 165, 2-[3-cyano-6-fluoro-1-(propan-2-yl)-1H-indol-2-yl]-N-(1,3-difluoropropan-2-yl)pyrimidine-5-sulfonamide] were, in that order, 149 to 150 °C and 500 to 2000 nM.
`N#Cc1c(-c2ncc(S(=O)(=O)NC(CF)CF)cn2)n(C2CCCC2)c2cc(F)ccc12` [compound 166, 2-(3-cyano-1-cyclopentyl-6-fluoro-1H-indol-2-yl)-N-(1,3-difluoropropan-2-yl)pyrimidine-5-sulfonamide]: the melting point lay in the range of 167 to 169 °C. Also, in data set [1], the IC50 was < 500 nM.
Regarding `Cc1ccc2c(C#N)c(-c3ncc(S(=O)(=O)NC(C)C)cn3)n(C(C)C)c2c1` [compound 167, 2-[3-cyano-6-methyl-1-(propan-2-yl)-1H-indol-2-yl]-N-(propan-2-yl)pyrimidine-5-sulfonamide], the melting point was in the range of 205 to 206 °C. Also, the half-maximal inhibitory concentration (IC50) in data set [1] was < 500 nM.
The like results for `Cc1ccc2c(C#N)c(-c3ncc(S(=O)(=O)NC(C)C)cn3)n(CC3CC3)c2c1` [compound 168, 2-[3-cyano-1-(cyclopropylmethyl)-6-methyl-1H-indol-2-yl]-N-(propan-2-yl)pyrimidine-5-sulfonamide] were, in that order, 245 to 247 °C and < 500 nM.
The like results for `Cc1ccc2c(C#N)c(-c3ncc(S(=O)(=O)NC(C)C)cn3)n(C3CCC3)c2c1` [compound 169, 2-(3-cyano-1-cyclobutyl-6-methyl-1H-indol-2-yl)-N-(propan-2-yl)pyrimidine-5-sulfonamide] were, in that order, 217 to 219 °C and < 500 nM.
The like results for `CC(C)NS(=O)(=O)c1cnc(-c2c(C#N)c3ccc(OC(F)F)cc3n2C(C)C)nc1` [compound 171, 2-[3-cyano-6-(difluoromethoxy)-1-(propan-2-yl)-1H-indol-2-yl]-N-(propan-2-yl)pyrimidine-5-sulfonamide] were, in that order, 193 to 196 °C and < 500 nM.
In turn, `COc1ccc2c(C#N)c(-c3ncc(S(=O)(=O)NC(C)C)cn3)n(C3CCC3)c2c1` [compound 172, 2-(3-cyano-1-cyclobutyl-6-methoxy-1H-indol-2-yl)-N-(propan-2-yl)pyrimidine-5-sulfonamide] registered a melting point of 200 to 202 °C. Moreover, in data set [1], the IC50 was < 500 nM.
The like results for `N#Cc1c(-c2ncc(S(=O)(=O)NC(CF)CF)cn2)n(C2CCCC2)c2cc(C3CC3)ccc12` [compound 173, 2-(3-cyano-1-cyclopentyl-6-cyclopropyl-1H-indol-2-yl)-N-(1,3-difluoropropan-2-yl)pyrimidine-5-sulfonamide] were, in that order, 215 to 219 °C and < 500 nM.
The like results for `C[C@H](NS(=O)(=O)c1ccc(-c2c(C#N)c3ccc(OC(F)F)cc3n2C2CCCC2)nc1)C1CC1` [compound 174, 6-[3-cyano-1-cyclopentyl-6-(difluoromethoxy)-1H-indol-2-yl]-N-[(1S)-1-cyclopropylethyl]pyridine-3-sulfonamide] were, in that order, 176 to 182 °C and < 500 nM.
The like results for `N#Cc1c(-c2ncc(S(=O)(=O)NC(CF)CF)cn2)n(C2CCC2)c2ccc(Cl)cc12` [compound 175, 2-(5-chloro-3-cyano-1-cyclobutyl-1H-indol-2-yl)-N-(1,3-difluoropropan-2-yl)pyrimidine-5-sulfonamide] were, in that order, 210 to 212 °C and < 500 nM.
Molecule `N#Cc1c(-c2ncc(S(=O)(=O)NC(CF)CF)cn2)n(C2CCC2)c2cc(Cl)ccc12` [compound 176, 2-(6-chloro-3-cyano-1-cyclobutyl-1H-indol-2-yl)-N-(1,3-difluoropropan-2-yl)pyrimidine-5-sulfonamide] yielded a melting point of 243 to 246 °C. In data set [1], the IC50 is < 500 nM.
The like results for `N#Cc1c(-c2ncc(S(=O)(=O)NC(CF)CF)cn2)n(C2CCC2)c2cc(OC(F)(F)F)ccc12` [compound 177, 2-[3-cyano-1-cyclobutyl-6-(trifluoromethoxy)-1H-indol-2-yl]-N-(1,3-difluoropropan-2-yl)pyrimidine-5-sulfonamide] were, in that order, 202 to 204 °C and < 500 nM.
The like results for `N#Cc1c(-c2ncc(S(=O)(=O)NC(CF)CF)cn2)n(C2CCCC2)c2cc(OC(F)(F)F)ccc12` [compound 178, 2-[3-cyano-1-cyclopentyl-6-(trifluoromethoxy)-1H-indol-2-yl]-N-(1,3-difluoropropan-2-yl)pyrimidine-5-sulfonamide] were, in that order, 181 to 187 °C and < 500 nM.
The molecule `N#Cc1c(-c2ncc(S(=O)(=O)NC(CF)CF)cn2)n(C2CCCCC2)c2cc(OC(F)F)ccc12` [compound 179, 2-[3-cyano-1-cyclohexyl-6-(difluoromethoxy)-1H-indol-2-yl]-N-(1,3-difluoropropan-2-yl)pyrimidine-5-sulfonamide] returned a melting point of 174 to 176 °C. For the same molecule, the IC50 in data set [1] is < 500 nM.
The like results for `C[C@@H](NS(=O)(=O)c1cnc(-c2c(C#N)c3ccc(C4CC4)cc3n2C2CCC2)nc1)C(F)(F)F` [compound 180, 2-(3-cyano-1-cyclobutyl-6-cyclopropyl-1H-indol-2-yl)-N-[(2R)-1,1,1-trifluoropropan-2-yl]pyrimidine-5-sulfonamide] were, in that order, 211 to 212 °C and 500 to 2000 nM.
The like results for `Cc1ccc2c(C#N)c(-c3ncc(S(=O)(=O)N[C@H](C)C(F)(F)F)cn3)n(C3CCC3)c2c1` [compound 181, 2-(3-cyano-1-cyclobutyl-6-methyl-1H-indol-2-yl)-N-[(2R)-1,1,1-trifluoropropan-2-yl]pyrimidine-5-sulfonamide] were, in that order, 143 to 145 °C and < 500 nM.
The like results for `Cc1ccc2c(C#N)c(-c3ncc(S(=O)(=O)N[C@H](C)C(F)(F)F)cn3)n(C3CCCC3)c2c1` [compound 182, 2-(3-cyano-1-cyclopentyl-6-methyl-1H-indol-2-yl)-N-[(2R)-1,1,1-trifluoropropan-2-yl]pyrimidine-5-sulfonamide] were, in that order, 116 to 118 °C and < 500 nM.
`COc1ccc2c(C#N)c(-c3ncc(S(=O)(=O)N[C@H](C)C(F)(F)F)cn3)n(C3CCC3)c2c1` [compound 183, 2-(3-cyano-1-cyclobutyl-6-methoxy-1H-indol-2-yl)-N-[(2R)-1,1,1-trifluoropropan-2-yl]pyrimidine-5-sulfonamide] registered a melting point of 147 to 149 °C. For the same molecule, the 50% inhibitory concentration (IC50) in data set [1] was 500 to 2000 nM.
The like results for `C[C@@H](NS(=O)(=O)c1cnc(-c2c(C#N)c3ccc(OC(F)F)cc3n2C2CCC2)nc1)C(F)(F)F` [compound 184, 2-[3-cyano-1-cyclobutyl-6-(difluoromethoxy)-1H-indol-2-yl]-N-[(2R)-1,1,1-trifluoropropan-2-yl]pyrimidine-5-sulfonamide] were, in that order, 112 to 114 °C and < 500 nM.
The like results for `CC(C)NS(=O)(=O)c1cnc(-c2c(C#N)c3ccc(C(C)C)cc3n2C2CCC2)nc1` [compound 185, 2-[3-cyano-1-cyclobutyl-6-(propan-2-yl)-1H-indol-2-yl]-N-(propan-2-yl)pyrimidine-5-sulfonamide] were, in that order, 220 to 222 °C and < 500 nM.
